Test results: publication PMC12040169 (PLOS Biology, 2025)

assay: in vitro; conditions: human, hela cells, % viability

Structure (SMILES) | viability at 28.5 h, 10 µM
Cc1ccnc(NC(=O)c2ccccc2)c1 [CBK004031] | 90.6%
CC(C)(C)OC(=O)N1CCC(Oc2ccc(CN)cc2)CC1 [CBK004131] | 81.7%
Cc1nc2ccccc2c(=O)n1CC(N)=O [CBK004145] | 89.8%
Cc1ccc(S(N)(=O)=O)cc1NC(=O)c1ccco1 [CBK004204] | 93.7%
O=C(Nc1cc(N2CCNCC2)ncn1)c1cnc2ccccc2c1 [CBK004209T] | 80.5%
O=C(CCOc1ccccc1)Nc1cc(N2CCNCC2)ncn1 [CBK004225T] | 98.6%
O=C(Nc1cncc(N2CCNCC2)n1)c1coc2c1C(=O)CCC2 [CBK004229T] | 96.8%
O=C(Nc1nccc(N2CCNCC2)n1)c1cccs1 [CBK004305T] | 77.7%
O=C1NC(c2ccccc2)Cc2onc(-c3ccccc3)c21 (stereo not shown) [CBK004409] | 90.9%
Cc1cc(Cl)cc(C)c1NS(=O)(=O)c1ccc(N2CCCNCC2)c2ccccc12 [CBK004433C] | 97.2%
COC(=O)c1sccc1NS(=O)(=O)c1cc(F)c(Br)cc1F [CBK004492] | 103%
COC(=O)c1sccc1NS(=O)(=O)c1ccc(C(F)(F)F)cc1[N+](=O)[O-] [CBK004510] | 92.9%
Cc1ccc(S(=O)(=O)Nc2ccsc2C(=O)Nc2ccc(F)cc2)cc1 [CBK004571] | 91%
Cc1ccc(S(=O)(=O)Nc2ccsc2C(=O)N2CCOCC2)cc1[N+](=O)[O-] [CBK004612] | 81.7%
CCOC(=O)c1c(NS(=O)(=O)Cc2ccccc2[N+](=O)[O-])sc2c1CCCC2 [CBK004651] | 95.8%
CCOC(=O)CSc1nnc(NS(=O)(=O)c2cccc(Cl)c2C)s1 [CBK004669] | 104%
COC(=O)c1nc(Cl)c(Cl)nc1NS(=O)(=O)c1cccc(Cl)c1C [CBK004709] | 91.8%
CCCC(=O)Nc1cccnc1N1CCNCC1 [CBK004732T] | 94%
CCC#CC(=O)Nc1ccc(N2CCNCC2)nc1 [CBK004746T] | 101%
O=C(Nc1ccc(N2CCNCC2)nc1)C1CCCO1 (stereo not shown) [CBK004748T] | 85.7%
O=C(Nc1ccccc1N1CCNCC1)C1CCC1 [CBK004755T] | 90.9%
O=C(Nc1cccc(N2CCNCC2)c1)C1CCCO1 (stereo not shown) [CBK004768T] | 93.4%
COCCC(=O)Nc1cccc(N2CCNCC2)c1 [CBK004769T] | 89.9%
CCOC(=O)NC(=O)c1cn(N2CCOCC2)c(=O)[nH]c1=O [CBK004845] | 104%

Structure (SMILES) | viability at 28.5 h, 10 µM
CC(C)(C)C(=O)Nc1nnc(SCC(=O)N2CCc3ccccc32)s1 [CBK004889] | 83.5%
C[C@@H](NC(=O)N(Cc1ccc([N+](=O)[O-])cc1)CC(C)(C)N)c1cccc2ccccc12 [CBK004921] | 102%
CC(C)(N)CN(Cc1ccc(Cl)cc1)C(=O)Nc1ccccc1-c1ccccc1 [CBK004924] | 105%
CN(C)C(=O)n1cc(Cl)c(-c2ccccc2)n1 [CBK004985] | 97%
S=C(NCC1CCN(C(=S)NC2CCCCC2)CC1)NC1CCCCC1 [CBK004987] | 87.7%
CC1CN(C(=S)Nc2ccc(NC(=S)N3CC(C)OC(C)C3)cc2)CC(C)O1 (stereo not shown) [CBK004991] | 78.9%
CC1CN(C(=S)Nc2ccc3ccccc3c2)CC(C)O1 (stereo not shown) [CBK004993] | 102%
COc1cc(Cc2c(OCCN(C)C)nc3ccccn3c2=O)cc(OC)c1OC [CBK005004C] | 99.9%
CCN(CC)S(=O)(=O)c1cc(S(=O)(=O)N(CC)CC)c2cccc3c2c1NC(=O)O3 [CBK005022] | 85.3%
Cc1cn(C(C)(C)C(=O)N2CCOCC2)nc1-c1ccccc1Cl [CBK005206] | 85.9%
Cc1ccc(NS(=O)(=O)N(C)C)c(C)c1 [CBK005246] | 122%
c1ccc2c(c1)OCc1nnc(CCN3CCCCC3)n1-2 [CBK005285] | 95.2%
O=C1NC(=O)C(c2ccccc2)(c2ccccc2)N1 [CBK005292] | 108%
CCOC(=O)N1CCCC(=O)c2c(C(=O)O)cn(C)c21 [CBK005301] | 86.4%
CC(C)CC1C(=O)NCCN1Cc1ccccc1 (stereo not shown) [CBK005336] | 92%
COc1ccc(OC)c(NS(=O)(=O)N(C)C)c1 [CBK005362] | 94.1%
O=c1c(I)coc2ccc(Cl)cc12 [CBK005364] | 93.9%
S=C(Nc1ccccc1)c1ccccc1 [CBK005397] | 100%
COc1ccccc1NC(=O)N(CC(C)C)CC(C)C [CBK005456] | 102%
Cc1cc(C)[n+](-c2ccccc2O)c(C)c1 [CBK005458G] | 116%
Cn1ccnc1[S+]([O-])Cc1nc2ccccc2s1 (stereo not shown) [CBK005549] | 91.5%
Cc1nn(Cc2nnc(SCC(=O)C(C)(C)C)o2)c(C)c1Br [CBK005646] | 92.1%
CCOC(=O)C1=C(Nc2ccc(O)cc2)C(=O)N(C(C)(C)C)C1 [CBK005677] | 83%
CSCCN(CC(=O)O)Cc1ccccc1 [CBK005712] | 91.1%

Structure (SMILES) | viability at 28.5 h, 10 µM
COC(=O)c1sccc1-c1ccc(C2C3=C(CCCC3=O)NC3=C2C(=O)CCC3)o1 [CBK005748] | 92.3%
COc1ccc(-c2c(C)nn(-c3ccc(Cl)nn3)c2C)c(C(=O)O)c1 [CBK005774] | 107%
CN(C)CC(c1ccccc1)c1nnc2n1-c1ccc(S(C)(=O)=O)cc1C(c1ccccc1)=NC2 (stereo not shown) [CBK005856G] | 102%
CN(C)C[C@@H]1Cc2cccc3cccc(c23)[C@@H]1O [CBK005877C] | 111%
O/N=C/Nc1nccc(-c2cc(Cl)sc2Cl)n1 [CBK005934] | 87.5%
Cc1nc(C)c(-c2cnc(NS(=O)(=O)c3ccc(Cl)cc3)nc2)s1 [CBK005935] | 86.9%
CSc1nc(N)n(-c2cc(C(F)(F)F)cc(C)n2)n1 [CBK005941] | 89.9%
COc1ccc(OCC(F)(F)F)c(C(=O)N2CCSCC2)c1 [CBK005950] | 83.7%
CCN(CC)CC(O)Cn1ccc(-c2cccs2)n1 (stereo not shown) [CBK005967] | 88.7%
Cn1c2c(ccc1=O)CCCCC2 [CBK005987] | 92%
O=c1cc(O)c2c(=O)n(-c3ccccc3)c(-c3ccccc3)cc2o1 [CBK006116] | 89.1%
Nc1nonc1-c1cccnc1 [CBK006120] | 105%
CC(C)(C)SCC(=O)c1ccc2c(c1)CCC(=O)N2 [CBK006168] | 104%
CC1CCN(C(=S)Nc2ccccc2)CC(C)(C)C1 (stereo not shown) [CBK006185] | 93.9%
Clc1cc(-c2cnc3ccccc3n2)c(Cl)s1 [CBK006186] | 85.4%
O=C1COCC(=O)N1c1ccccn1 [CBK006233] | 89.2%
OC1(C(F)(F)F)C=C(c2cccs2)ON1 (stereo not shown) [CBK006243] | 89%
Nc1ccccc1Sc1nccc(C(F)(F)F)n1 [CBK006263] | 94.5%
CCOC(=O)N/N=C1\CCSc2sccc21 [CBK006300] | 110%
FC(F)(F)c1nnc(-c2cc3sccc3s2)o1 [CBK006303] | 96.4%
CCCc1c(C(=O)NC2CC2)cnn1-c1ccc(Cl)cc1 [CBK006334] | 112%
OCC12COC3c4ccccc4C(OC1)N32 (stereo not shown) [CBK006347] | 89.5%
COC(=O)c1sc(N2CCOCC2)c(C#N)c1N [CBK006430] | 101%
CNC(=S)N(CCS(=O)(=O)c1ccc(Cl)cc1)Cc1cccs1 [CBK006431] | 97.5%

Structure (SMILES) | viability at 28.5 h, 10 µM
O=c1ccccn1COCc1ccccc1 [CBK006438] | 103%
Cc1c(C(=O)N2CCCCC2)sc2nc(C(F)(F)F)nn12 [CBK006455] | 105%
Cc1c2c(nn1C)CSc1ccccc1C2=O [CBK006517] | 92.8%
S=C1NC2(CCCCC2)NC12CCCCC2 [CBK006533] | 98.5%
COc1ccc(C)cc1NC(=O)Nc1nc(C)cs1 [CBK006565] | 83.3%
Cc1ccc2c(c1)N(CCO)C(C)(C)CC2C (stereo not shown) [CBK006567] | 92.1%
CNC(=O)C1/C(=N\O)c2ccccc2N1C(C)=O (stereo not shown) [CBK006569] | 114%
COc1ccc(-c2cc(=O)n3cc[nH]c3n2)cc1 [CBK006659] | 87.6%
CCCCC(O)C[N+]1(C)CCC(c2ccccc2)CC1 (stereo not shown) [CBK006696I] | 101%
CC(C)(C)S(=O)(=O)c1ccc2nc3c(n2c1)CCCC3 [CBK006753] | 94.9%
N/C(=N\c1nonc1N)NC(=O)c1ccccc1 [CBK006756] | 71.5%
N/C(CSc1cccc2c1CCCC2)=N\O [CBK006787C] | 101%
Cn1c(C(C)(C)C)cs/c1=N\NS(=O)(=O)c1ccccc1 [CBK006830B] | 110%
CC(C)(C)c1cc(NC(=O)C(C)(C)S(=O)(=O)c2ccc(C(F)(F)F)cn2)no1 [CBK006849] | 113%
COc1ccc(C(=O)n2nc(SC)nc2N)cc1 [CBK006853] | 100%
CCCCNC(=O)N(O)C1N(C)C(=S)SC1(C)C (stereo not shown) [CBK006880] | 91.2%
Cc1cc(N(C)C)nc(SCc2n[nH]c(=S)o2)n1 [CBK006887] | 99.8%
CC(C)(C)C(=O)CSc1nnc(-c2ccccn2)s1 [CBK006894] | 91.9%
CC1SC(c2cc3ccccc3o2)N(c2ccc(F)cc2F)C1=O (stereo not shown) [CBK006917] | 107%
CCOC(=O)CSC/C(=N/Nc1ccccc1)c1cccs1 [CBK006956] | 102%
CNC(=O)Nc1cc(C(O)(C(F)(F)F)C(F)(F)F)ccc1C [CBK006970] | 113%
CC1(C)CCN(Cc2ccccc2)C1CC#N (stereo not shown) [CBK006978C] | 102%
OCCCc1[nH]nc(-c2ccc(Cl)cc2)c1Br [CBK006993] | 59.2%
CCOC(=O)CSc1nc(-c2ccc(C)cc2)cs1 [CBK007039] | 90.4%

same assay, conditions: human, hela cells, % viability, bulk resorufin, single well

Structure (SMILES) | viability at 28.5 h, 10 µM
Cc1ccc2[nH]cc(CCN)c2c1 [CBK004365] | 103%
